Test system: MCF7 multi-cell spheroids with HUVEC/MSC, viability
Test: Anticancer human tumor MCF7 cell line growth inhibition [IpAb];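 further: spheroids exposed to agents for seven days before readout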
Settings: for IC50: curve of first compound; for viability, T/C: stronger effect = lower value
How it was run: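 Spheroids of 60% malignant cells, 25% HUVEC and 15% MSC were exposed to targeted agents combined with ipatasertib or abemaciclib. Doses started at or near clinical Cmax (10 microM when unknown) and fell in half-log steps.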

C=CCn1c(=O)c2cnc(Nc3ccc(N4CCN(C)CC4)cc3)nc2n1-c1cccc(C(C)(C)O)n1 + CCN1CCN(Cc2ccc(Nc3ncc(F)c(-c4cc(F)c5nc(C)n(C(C)C)c5c4)n3)nc2)CC1
IC50 (second compound 0.01 µM): 0.485 µM | IC50 (second compound 0.0316 µM): 0.561 µM | IC50 (second compound 0.1 µM): 0.741 µM | IC50 (second compound 0.316 µM): 0.965 µM | IC50 (second compound 1 µM): 0.85 µM | viability, T/C (second compound 0.01 µM, first compound 0.0316 µM): 94.5% | viability, T/C (second compound 0.01 µM, first compound 0.1 µM): 90.6% | viability, T/C (second compound 0.01 µM, first compound 0.316 µM): 60.1% | viability, T/C (second compound 0.01 µM, first compound 1 µM): 32.8% | viability, T/C (second compound 0.01 µM, first compound 3.16 µM): 25.6% | viability, T/C (second compound 0.01 µM, first compound 10 µM): 25.6% | viability, T/C (second compound 0.0316 µM, first compound 0.0316 µM): 91.4% | viability, T/C (second compound 0.0316 µM, first compound 0.1 µM): 87.7% | viability, T/C (second compound 0.0316 µM, first compound 0.316 µM): 63.4% | viability, T/C (second compound 0.0316 µM, first compound 1 µM): 36.3% | viability, T/C (second compound 0.0316 µM, first compound 3.16 µM): 25.7% | viability, T/C (second compound 0.0316 µM, first compound 10 µM): 23.7% | viability, T/C (second compound 0.1 µM, first compound 0.0316 µM): 113% | viability, T/C (second compound 0.1 µM, first compound 0.1 µM): 83.5% | viability, T/C (second compound 0.1 µM, first compound 0.316 µM): 71% | viability, T/C (second compound 0.1 µM, first compound 1 µM): 42.6% | viability, T/C (second compound 0.1 µM, first compound 3.16 µM): 29% | viability, T/C (second compound 0.1 µM, first compound 10 µM): 36.7% | viability, T/C (second compound 0.316 µM, first compound 0.0316 µM): 109% | viability, T/C (second compound 0.316 µM, first compound 0.1 µM): 109% | viability, T/C (second compound 0.316 µM, first compound 0.316 µM): 88% | viability, T/C (second compound 0.316 µM, first compound 1 µM): 49% | viability, T/C (second compound 0.316 µM, first compound 3.16 µM): 37.9% | viability, T/C (second compound 0.316 µM, first compound 10 µM): 36.8% | viability, T/C (second compound 1 µM, first compound 0.0316 µM): 88% | viability, T/C (second compound 1 µM, first compound 0.1 µM): 94% | viability, T/C (second compound 1 µM, first compound 0.316 µM): 87.1% | viability, T/C (second compound 1 µM, first compound 1 µM): 43.9% | viability, T/C (second compound 1 µM, first compound 3.16 µM): 41.6% | viability, T/C (second compound 1 µM, first compound 10 µM): 42.1%

Cn1cnc2c(F)c(Nc3ccc(Br)cc3Cl)c(C(=O)NOCCO)cc21 + CCN1CCN(Cc2ccc(Nc3ncc(F)c(-c4cc(F)c5nc(C)n(C(C)C)c5c4)n3)nc2)CC1
IC50 (second compound 0.01 µM): > 3 µM | IC50 (second compound 0.0316 µM): > 3 µM | IC50 (second compound 0.1 µM): > 3 µM | IC50 (second compound 0.316 µM): > 3 µM | IC50 (second compound 1 µM): > 3 µM | viability, T/C (second compound 0.01 µM, first compound 0.00949 µM): 104% | viability, T/C (second compound 0.01 µM, first compound 0.03 µM): 121% | viability, T/C (second compound 0.01 µM, first compound 0.0949 µM): 103% | viability, T/C (second compound 0.01 µM, first compound 0.3 µM): 113% | viability, T/C (second compound 0.01 µM, first compound 0.949 µM): 125% | viability, T/C (second compound 0.01 µM, first compound 3 µM): 100% | viability, T/C (second compound 0.0316 µM, first compound 0.00949 µM): 94.4% | viability, T/C (second compound 0.0316 µM, first compound 0.03 µM): 113% | viability, T/C (second compound 0.0316 µM, first compound 0.0949 µM): 109% | viability, T/C (second compound 0.0316 µM, first compound 0.3 µM): 116% | viability, T/C (second compound 0.0316 µM, first compound 0.949 µM): 119% | viability, T/C (second compound 0.0316 µM, first compound 3 µM): 99% | viability, T/C (second compound 0.1 µM, first compound 0.00949 µM): 130% | viability, T/C (second compound 0.1 µM, first compound 0.03 µM): 120% | viability, T/C (second compound 0.1 µM, first compound 0.0949 µM): 117% | viability, T/C (second compound 0.1 µM, first compound 0.3 µM): 127% | viability, T/C (second compound 0.1 µM, first compound 0.949 µM): 127% | viability, T/C (second compound 0.1 µM, first compound 3 µM): 113% | viability, T/C (second compound 0.316 µM, first compound 0.00949 µM): 119% | viability, T/C (second compound 0.316 µM, first compound 0.03 µM): 132% | viability, T/C (second compound 0.316 µM, first compound 0.0949 µM): 132% | viability, T/C (second compound 0.316 µM, first compound 0.3 µM): 126% | viability, T/C (second compound 0.316 µM, first compound 0.949 µM): 120% | viability, T/C (second compound 0.316 µM, first compound 3 µM): 108% | viability, T/C (second compound 1 µM, first compound 0.00949 µM): 107% | viability, T/C (second compound 1 µM, first compound 0.03 µM): 110% | viability, T/C (second compound 1 µM, first compound 0.0949 µM): 107% | viability, T/C (second compound 1 µM, first compound 0.3 µM): 95.5% | viability, T/C (second compound 1 µM, first compound 0.949 µM): 88.5% | viability, T/C (second compound 1 µM, first compound 3 µM): 88.5%

Reference: PubChem BioAssay AID2060329 (Molecular Pharmacology Branch, DTP, NCI, 2025)
